Measurements taken from patent publication US10294202B2, “Pyrrolidinones as herbicides” (FMC Corporation, priority 2013, dated 2019).

Tests used:
[1] = system: barnyardgrass; test: Test A pre-/postemergence herbicide test; assay type: in vivo, Echinochloa crus-galli
Procedure, shortened: (§1)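 Visual 0–100 ratings (100 = complete control) made about 10 days after treatment, greenhouse-held plants compared with untreated controls. Treatments: postemergence sprays on one- to two-leaf plants (2–10 cm tall) and preemergence directed soil sprays after planting in loam–sand, chemicals formulated in non-phytotoxic solvent containing surfactant.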

[2] = system: kochia; test: Test A pre-/postemergence herbicide test; assay type: in vivo, Kochia scoparia; details: for Plant response rating, Kochia: 0 to 100 scale
Procedure, shortened: as §1

[3] = system: ragweed; test: Test A pre-/postemergence herbicide test; assay type: in vivo, Ambrosia elatior; details: for Plant response rating, Ragweed: 0 to 100 scale
Procedure, shortened: as §1

[4] = system: ryegrass, Italian; test: Test A pre-/postemergence herbicide test; assay type: in vivo, Lolium multiflorum; details: for Plant response rating, Ryegrass, Italian: 0 to 100 scale
Procedure, shortened: as §1

[5] = system: giant foxtail; test: Test A pre-/postemergence herbicide test; assay type: in vivo, Setaria faberii; details: for Plant response rating, Foxtail, Giant: 0 to 100 scale
Procedure, shortened: as §1

[6] = system: pigweed; test: Test A pre-/postemergence herbicide test; assay type: in vivo, Amaranthus retroflexus; details: for Plant response rating, Pigweed: 0 to 100 scale
Procedure, shortened: as §1

[7] = system: wheat; test: Test A pre-/postemergence herbicide test; assay type: in vivo, Triticum aestivum; details: Postemergence; for Plant response rating, Wheat: 125 g ai/ha, 0 to 100 scale, 0 no effect, 100 complete control; for Wheat plant response rating (0 to 100 scale, 0 is no effect, 100 is complete control): 500 g ai/ha
Procedure, shortened: as §1

[8] = system: corn; test: Test A pre-/postemergence herbicide test; assay type: in vivo, Zea mays; details: Postemergence
Procedure, shortened: as §1

[9] = system: blackgrass; test: Test A postemergence herbicide test; assay type: in vivo, Alopecurus myosuroides
Procedure, shortened: (§2)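 Visual injury rating, 0 (no effect) to 100 (complete control), versus untreated controls ~10 days after treatment. Postemergence spray applied at one- to two-leaf stage, plants 2–10 cm tall, potted in loam soil/sand. Greenhouse-held.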

[10] = system: galium; test: Test A postemergence herbicide test; assay type: in vivo, Galium aparine; details: for Plant response rating, Galium: 125 g ai/ha, 0 to 100 scale, 0 no effect, 100 complete control; for Galium plant response rating (0 to 100 scale, 0 is no effect, 100 is complete control): 500 g ai/ha
Procedure, shortened: as §2

[11] = system: rice; test: Test B flooded paddy test; assay type: in vivo, Oryza sativa; details: 500 g ai/ha, Flood; scale of 0 to 100 where 0 is no effect and 100 is complete control
Procedure, shortened: (§3)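 Paddy-water application at a 3 cm flood, young plants having two leaves. Water level maintained; greenhouse, 13–15 days; visual 0–100 control rating.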

[12] = system: sedge, umbrella; test: Test B flooded paddy test; assay type: in vivo, Cyperus difformis; details: 500 g ai/ha, Flood; scale of 0 to 100 where 0 is no effect and 100 is complete control
Procedure, shortened: as §3

[13] = system: ducksalad; test: Test B flooded paddy test; assay type: in vivo, Heteranthera limosa; details: 500 g ai/ha, Flood; scale of 0 to 100 where 0 is no effect and 100 is complete control
Procedure, shortened: as §3

[14] = system: barnyardgrass; test: Test B flooded paddy test; assay type: in vivo, Echinochloa crus-galli; details: 500 g ai/ha, Flood; scale of 0 to 100 where 0 is no effect and 100 is complete control
Procedure, shortened: as §3

[15] = 125 g ai/ha, visual rating, 0 to 100 scale, 0 no effect, 100 complete control, approximately 10 days, preemergence
[16] = Postemergence, 125 g ai/ha, 0 to 100 scale, 0 no effect, 100 complete control
[17] = Postemergence, 500 g ai/ha, 0 to 100 scale (0 no effect, 100 complete control)
[18] = preemergence, 500 g ai/ha, 0 to 100 scale (0 no effect, 100 complete control)
[19] = 125 g ai/ha, visual rating, 0 no effect, 100 complete control, approximately 10 days, preemergence
[20] = Postemergence, 125 g ai/ha, 0 no effect, 100 complete control
[21] = 125 g ai/ha, 0 to 100 scale, 0 no effect, 100 complete control
[22] = 500 g ai/ha, 0 to 100 scale (0 no effect, 100 complete control)

| SMILES | Plant response rating, Barnyardgrass [1, 15] | Plant response rating, Barnyardgrass [1, 16] | Plant response rating, Barnyardgrass [1, 17] | Plant response rating, Barnyardgrass [1, 18] | Plant response rating, Kochia [2, 19] | Plant response rating, Kochia [2, 20] | Kochia plant response rating (0 to 100 scale, 0 is no effect, 100 is complete control) ([2]; Postemergence, 500 g ai/ha) | Plant response rating, Kochia ([2]; preemergence, 500 g ai/ha) | Plant response rating, Ragweed [3, 19] | Plant response rating, Ragweed [3, 20] | Ragweed plant response rating (0 to 100 scale, 0 is no effect, 100 is complete control) ([3]; Postemergence, 500 g ai/ha) | Plant response rating, Ragweed ([3]; preemergence, 500 g ai/ha) | Plant response rating, Ryegrass, Italian [4, 19] | Plant response rating, Ryegrass, Italian [4, 20] | Ryegrass, Italian plant response rating (0 to 100 scale, 0 is no effect, 100 is complete control) ([4]; Postemergence, 500 g ai/ha) | Plant response rating, Ryegrass, Italian ([4]; preemergence, 500 g ai/ha) | Plant response rating, Foxtail, Giant [5, 19] | Plant response rating, Foxtail, Giant [5, 20] | Foxtail, Giant plant response rating (0 to 100 scale, 0 is no effect, 100 is complete control) ([5]; Postemergence, 500 g ai/ha) | Plant response rating, Foxtail, Giant ([5]; preemergence, 500 g ai/ha) | also measured |
| --- | --- | --- | --- | --- | --- | --- | --- | --- | --- | --- | --- | --- | --- | --- | --- | --- | --- | --- | --- | --- | --- |
| O=C1NCC(c2cccc(OC(F)(F)C(F)F)c2)C1C(=O)Nc1ccccc1F (racemic) [Compound 121] | 80 | 70 | 80 | 90 | 60 | 50 | 60 | 70 | 70 | 0 | 30 | 70 | 0 | 40 | 50 | 0 | 90 | 80 | 90 | 90 | Plant response rating, Pigweed [6, 19]: 50; Plant response rating, Pigweed [6, 20]: 0; Pigweed plant response rating (0 to 100 scale, 0 is no effect, 100 is complete control) ([6]; Postemergence, 500 g ai/ha): 0; Plant response rating, Pigweed ([6]; preemergence, 500 g ai/ha): 70; Plant response rating, Wheat [7]: 50; Wheat plant response rating (0 to 100 scale, 0 is no effect, 100 is complete control) [7]: 60; Plant response rating, Corn [8, 21]: 50; Plant response rating, Corn [8, 22]: 70; Plant response rating, Blackgrass [9, 21]: 60; Plant response rating, Blackgrass [9, 22]: 70; Plant response rating, Galium [10]: 60; Galium plant response rating (0 to 100 scale, 0 is no effect, 100 is complete control) [10]: 70; Plant response rating, Rice [11]: 35; Plant response rating, Sedge, Umbrella [12]: 0; Plant response rating, Ducksalad [13]: 100; Plant response rating, Barnyardgrass [14]: 70 |
| O=C1NCC(c2cccc(OC(F)(F)C(F)F)c2)C1C(=O)Nc1ccc(F)cc1F (racemic) [Compound 122] | 80 | 70 | 80 | 90 | 60 | 70 | 70 | 70 | 0 | 30 | 70 | 60 | 0 | 0 | 40 | 0 | 90 | 80 | 80 | 90 | Plant response rating, Pigweed [6, 19]: 50; Plant response rating, Pigweed [6, 20]: 60; Pigweed plant response rating (0 to 100 scale, 0 is no effect, 100 is complete control) ([6]; Postemergence, 500 g ai/ha): 80; Plant response rating, Pigweed ([6]; preemergence, 500 g ai/ha): 80; Plant response rating, Wheat [7]: 50; Wheat plant response rating (0 to 100 scale, 0 is no effect, 100 is complete control) [7]: 60; Plant response rating, Corn [8, 21]: 40; Plant response rating, Corn [8, 22]: 60; Plant response rating, Blackgrass [9, 21]: 50; Plant response rating, Blackgrass [9, 22]: 70; Plant response rating, Galium [10]: 70; Galium plant response rating (0 to 100 scale, 0 is no effect, 100 is complete control) [10]: 80; Plant response rating, Rice [11]: 15; Plant response rating, Sedge, Umbrella [12]: 0; Plant response rating, Ducksalad [13]: 100; Plant response rating, Barnyardgrass [14]: 65 |
| O=C1NCC(c2cccc(OC(F)(F)C(F)F)c2)C1C(=O)Nc1ccc(F)c(F)c1F (racemic) [Compound 124] | 70 | 60 | 70 | 80 | 60 | 70 | 80 | 70 | 40 | 40 | 70 | 50 | 0 | 30 | 50 | 40 | 80 | 80 | 90 | 90 | Plant response rating, Pigweed [6, 19]: 70; Plant response rating, Pigweed [6, 20]: 60; Pigweed plant response rating (0 to 100 scale, 0 is no effect, 100 is complete control) ([6]; Postemergence, 500 g ai/ha): 70; Plant response rating, Pigweed ([6]; preemergence, 500 g ai/ha): 80; Plant response rating, Wheat [7]: 30; Wheat plant response rating (0 to 100 scale, 0 is no effect, 100 is complete control) [7]: 50; Plant response rating, Corn [8, 21]: 0; Plant response rating, Corn [8, 22]: 50; Plant response rating, Blackgrass [9, 21]: 40; Plant response rating, Blackgrass [9, 22]: 70; Plant response rating, Galium [10]: 70; Galium plant response rating (0 to 100 scale, 0 is no effect, 100 is complete control) [10]: 80; Plant response rating, Rice [11]: 0; Plant response rating, Sedge, Umbrella [12]: 0; Plant response rating, Ducksalad [13]: 100; Plant response rating, Barnyardgrass [14]: 40 |
